{
  "source": "patent US11395798B2",
  "about": "“O/W type emulsion” (NOF CORPORATION, priority 2015, dated 2022)",
  "key": {"[1]": {"test": "influence of concentration of PEG lipid on retentivity in blood", "assay_type": "in vivo", "conditions": "B-2/DOPC/Chol=3/4/3, 10 mol % DMG-PEG2000, 3-9 mol % DSG-PEG2000, 10 mol % Dex-CHEMS; mouse tail vein; almost equal for 6 and 9 mol %", "experimental": "An emulsion having a composition of B-2/DOPC/Chol=3/4/3+10 mol % DMG-PEG2000+3-9 mol % DSG-PEG2000+10 mol % Dex-CHEMS was prepared in the same manner as in Example 1. An emulsion having each PEG amount was administered from the mouse tail vein, plasma was collected 1 min, 1 hr, 6 hr and 24 hr later, extracted with an organic solvent, and Dex-CHEMS concentration was calculated by HPLC. Along with an increase in DSG-PEG2000, the retentivity in blood was improved to become almost equal for DSG-PEG2000 6 mol % and 9 mol %."}, "[2]": {"test": "retentivity in blood of Dex-CHEMS / Dex-Pal emulsions (HPLC of plasma)", "design": "species or system ICR mouse", "conditions": "mouse, in vivo, iv", "experimental": "When the lipid composition was 3 mM B-2/DOPC/Chol=3/4/3+10 mol % Dex-CHEMS+10 mol % DMG-PEG2000+10 mol % DSG-PEG2000 (1000 μL), a lipid solution was mixed in vitro as follows.\nThe solvent was evaporated once and the residue was redissolved in 100 μL CHCl3. N2 gas was blown to form a lipid thin film on the wall of a test tube. After a few hours of a vacuum treatment by a desiccator, 20 mM Maric acid buffer (30 mM NaCl, pH 3.0, 1000 μL) was added, and the mixture was incubated for 10 min at room temperature. After sonication with a bath-type sonicator for 30 sec, the mixture was sonicated by a probe-type sonicator for 5 min (output power: 30%). After centrifugation at 4° C., 15000 g for 5 min, the supernatant was collected. Neutralization was performed by adding an equal amount of 36 mM NaOH/PBS.\nAn emulsion composed of Dex-CHEMS and B-2 was administered to ICR mouse (4 w ♂) at 25 μg Dex-CHEMS/mouse. […]\nPlasma (16.5 μL) centrifuged at 4° C., 1000 g for 10 min was transferred to another 1.5 mL tube. […] Using HPLC, the peak area of Dex-CHEMS and the peak area of 4 MU-Pal were calculated. The peak area of 0.5, 0.25, 0.125, 0.0625 nmol Dex-CHEMS was calculated by a similar method using HPLC and used as an analytical curve. […]\nThe residual rate in blood at 1 hr later was calculated with that 1 min after the administration as 100%."}},
  "data": [
    {"compound": "CC(C)CCC[C@@H](C)[C@H]1CC[C@H]2C3CC=C4C[C@@H](OC(=O)CCC(=O)OCC(=O)[C@]5(O)[C@@H](C)C[C@@H]6[C@H]7CCC8=CC(=O)C=C[C@@]8(C)[C@]7(F)C(O)C[C@]65C)CC[C@]4(C)[C@H]3CC[C@]12C", "note": "(some centres unmarked) [Dex-CHEMS, dexamethasone cholesterol hemisuccinate]", "values": [
      {"measurement": "retentivity in blood along with an increase in DSG-PEG2000", "setting": "[1]", "result": "improved"},
      {"measurement": "residual in blood at 1 hr (1 min after administration as 100%)", "setting": "[2]", "result": "continuously remained"}
    ]}
  ]
}
